Eight compounds from ChEMBL document CHEMBL1201862, “PubChem BioAssay data set” (2004) can be followed below.

Test systems include A498; BT-549; HCC 2998; HL-60; HOP-92; LOX IMVI; M14; MDA-N; NCI-H460; NCI-H522; OVCAR-3; OVCAR-4; RPMI-8226; SF-295; SK-MEL-5; SK-OV-3; SW-620; T47D; UACC-257; RXF 393.
Holding throughout (assay): NCI-60 cell line screen, 48 h

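Protocol summary: plate cells (96-well), add compound at 5 concentrations, incubate 48 h, interpolate endpoints linearly. At the GI50, growth is halved.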 Activity calls are given as the source filed them. Cut-off read from the data, not from the text of the source: active = GI50 up to about 1.1 µM and inactive = higher. Bounds are passed on as bounds.

Take `O=C1CCCC1CN1CCCC1` (centres undefined): the GI50 in the assay with A498 is 22.5 µM (inactive); with BT-549 it was 1.56 µM (inactive); in the assay with HCC 2998 it was > 45.2 µM (inactive); in the assay with HL-60, 0.367 µM (active); with HOP-92, 6.56 µM (inactive); in the assay with LOX IMVI, 8.75 µM (inactive). Also, the GI50 with M14 is 1.67 µM (inactive); in the assay with MDA-N, 13.5 µM (inactive); in the assay with NCI-H460, 42.4 µM (inactive); in the assay on NCI-H522 it was < 0.0275 µM (active); in the assay on OVCAR-3, 14.2 µM (inactive); with OVCAR-4, 1.93 µM (inactive). The GI50 in the assay with RPMI-8226 is 0.431 µM (active); in the assay with SF-295 it was > 100 µM (inactive); in the assay on SK-MEL-5, 18 µM (inactive); with SK-OV-3 it was 13.8 µM (inactive); in the assay with SW-620, 5.24 µM (inactive); with T47D, 2.75 µM (inactive). Besides, the GI50 with UACC-257 was 15.2 µM (inactive).

As for `CN(C)c1n/c(=N/Cc2ccco2)ss1`, the GI50 with A498 is > 78 µM (inactive); in the assay on BT-549, 18.6 µM (inactive); with HCC 2998, 52.8 µM (inactive); in the assay on HL-60, 1.59 µM (inactive); with LOX IMVI, 18.5 µM (inactive); in the assay on M14, 21 µM (inactive). In addition, the GI50 in the assay on MDA-N is 16.6 µM (inactive); in the assay with NCI-H460, 10.9 µM (inactive); with NCI-H522, 0.307 µM (active); with OVCAR-3, 8.97 µM (inactive); in the assay with OVCAR-4 it was 30.3 µM (inactive); in the assay on RPMI-8226 it was 1.79 µM (inactive). For the same compound, the GI50 was 7.98 µM (inactive) in the assay on RXF 393; 37.2 µM (inactive) with SF-295; 2.76 µM (inactive) in the assay with SK-MEL-5; 55.6 µM (inactive) in the assay with SK-OV-3; 26.2 µM (inactive) with SW-620; 14.3 µM (inactive) in the assay with T47D. The GI50 with UACC-257 was 46.5 µM (inactive).

For `CC(=O)NC1C(OCC(=O)NC(C)C(=O)NC(CCC(=O)NCCCCCNc2ccc([N+](=O)[O-])c3[nH]c4ccccc4c(=O)c23)C(N)=O)C(O)C(CO)OC1(C)OCc1ccccc1` (centres undefined), the GI50 in the assay on A498, with BT-549, in the assay with HCC 2998, in the assay on LOX IMVI, in the assay on M14 and in the assay on MDA-N was > 50 µM (inactive) in each case. The GI50 in the assay with NCI-H460 was 18.4 µM (inactive); in the assay with NCI-H522, > 50 µM (inactive); in the assay on OVCAR-3 it was > 50 µM (inactive); with OVCAR-4, > 50 µM (inactive); in the assay with RPMI-8226 it was 0.005 µM (active); in the assay with RXF 393 it was 3.48 µM (inactive). In addition, the GI50 in the assay with SF-295 is 45.4 µM (inactive); in the assay with SK-MEL-5, > 50 µM (inactive); in the assay with SK-OV-3, 39.1 µM (inactive); in the assay on SW-620, > 50 µM (inactive); in the assay with T47D, > 50 µM (inactive); with UACC-257 it was > 50 µM (inactive).

As for `CC1=CCC[C@H]2[C@](C)(CC3=CC(=O)C4SCCSC4C3=O)[C@@H](C)CC[C@]12C` (some centres undefined), the GI50 in the assay on A498 was 16.1 µM (inactive); in the assay with BT-549 it was 20.6 µM (inactive); in the assay with HCC 2998 it was 21.9 µM (inactive); in the assay on HOP-92 it was 31.4 µM (inactive); with LOX IMVI, 11.2 µM (inactive); in the assay with M14, 14.3 µM (inactive). In addition, the GI50 is 11.4 µM (inactive) in the assay on MDA-N; 20 µM (inactive) with NCI-H460; 18.5 µM (inactive) in the assay on OVCAR-3; 24.6 µM (inactive) in the assay on OVCAR-4; 14.1 µM (inactive) in the assay on RPMI-8226; 18.6 µM (inactive) in the assay on RXF 393. Moreover, the GI50 in the assay on SF-295 is 10.9 µM (inactive); in the assay with SK-MEL-5 it was 13.8 µM (inactive); in the assay with SW-620, 17.1 µM (inactive); with T47D it was > 100 µM (inactive); with UACC-257, 19.3 µM (inactive).

Turning to `CN(C)CCCN1c2ccccc2CCc2cc([N+](=O)[O-])ccc21`, the GI50 in the assay on A498 is 25.5 µM (inactive); in the assay with BT-549, 22.4 µM (inactive); in the assay on HCC 2998 it was 17.7 µM (inactive); in the assay with LOX IMVI, 19.1 µM (inactive); with M14, 18.9 µM (inactive); in the assay on MDA-N it was 19.6 µM (inactive). The GI50 was 20 µM (inactive) in the assay with NCI-H460; 24.5 µM (inactive) in the assay with NCI-H522; 20 µM (inactive) in the assay on OVCAR-3; 24.4 µM (inactive) with OVCAR-4; 21.5 µM (inactive) with RPMI-8226; 14.2 µM (inactive) in the assay on RXF 393. In addition, the GI50 in the assay with SF-295 was 18.9 µM (inactive); with SK-MEL-5 it was 15.8 µM (inactive); in the assay with T47D it was 18.7 µM (inactive); in the assay with UACC-257 it was 20.1 µM (inactive).

Take `CCN(CC)c1ccc(/C=c2\nc(-c3ccccc3)n3c2nc2ccccc23)cc1`: the GI50 was 64.4 µM (inactive) in the assay on A498; 16.9 µM (inactive) with BT-549; 2.72 µM (inactive) with HCC 2998; 68.7 µM (inactive) in the assay on HOP-92; 2.04 µM (inactive) with LOX IMVI; 7.46 µM (inactive) with M14. For the same compound, the GI50 in the assay on MDA-N is 6.25 µM (inactive); with NCI-H460, 1.98 µM (inactive); with OVCAR-3, 9.62 µM (inactive); with OVCAR-4, 3.17 µM (inactive); with RPMI-8226, 1.48 µM (inactive); with RXF 393, 16.8 µM (inactive). Besides, the GI50 is 4.58 µM (inactive) in the assay with SF-295; 3.64 µM (inactive) with SK-MEL-5; 24.4 µM (inactive) with SK-OV-3; 4.7 µM (inactive) with SW-620; 0.0256 µM (active) in the assay on T47D; 21.9 µM (inactive) with UACC-257.

Regarding `Cc1ccsc1C(=S)Nc1ccc(Cl)c(C(=O)OC(C(C)C)C(C)C)c1`, the GI50 with A498 is 27.2 µM (inactive); with BT-549, 3.38 µM (inactive); in the assay with HCC 2998, 16.1 µM (inactive); in the assay with HL-60, 11.4 µM (inactive); with HOP-92, 16.3 µM (inactive); with LOX IMVI, 18 µM (inactive). Further, the GI50 with M14 is 17.9 µM (inactive); in the assay with MDA-N, 23.6 µM (inactive); with NCI-H460, 23.7 µM (inactive); in the assay with NCI-H522, 11.4 µM (inactive); in the assay with OVCAR-3 it was 14 µM (inactive); with OVCAR-4, 29.1 µM (inactive). In addition, the GI50 in the assay with RPMI-8226 was 10.6 µM (inactive); in the assay with SF-295, 21.9 µM (inactive); in the assay on SK-MEL-5 it was 15.4 µM (inactive); in the assay with SK-OV-3, 28.2 µM (inactive); in the assay with SW-620 it was 18.9 µM (inactive); with T47D, 6.9 µM (inactive). Besides, the GI50 in the assay with UACC-257 was 28.4 µM (inactive).

As for `CC(C)C(=O)CC(Sc1ccc(N)cc1)c1ccccc1` (centres undefined), the GI50 is 36.2 µM (inactive) in the assay on A498; 33.7 µM (inactive) in the assay on BT-549; 24.7 µM (inactive) with HCC 2998; 16.2 µM (inactive) in the assay on HL-60; 16.6 µM (inactive) in the assay on LOX IMVI; 30.4 µM (inactive) in the assay on M14. Further, the GI50 is 16 µM (inactive) in the assay on MDA-N; 23.2 µM (inactive) with NCI-H460; 15.8 µM (inactive) in the assay with NCI-H522; 27.6 µM (inactive) in the assay with OVCAR-3; 17.4 µM (inactive) in the assay on RPMI-8226; 25.9 µM (inactive) with RXF 393. In addition, the GI50 in the assay on SF-295 was 25.6 µM (inactive); with SK-MEL-5, 20.4 µM (inactive); in the assay with SK-OV-3 it was 26.4 µM (inactive); in the assay with SW-620 it was 16.9 µM (inactive); in the assay with T47D it was 21.9 µM (inactive); in the assay with UACC-257 it was 33.6 µM (inactive).
